Data set [1] deals with influenza A virus A/PR/8/34 (H1N1). Put plainly: Influenza virus cytopathic effect (CPE) assay, A/PR/8/34 (H1N1). The data set is classed as cell-based. The settings on record: MDCK cells, 5 days, CCK8, read-out: EC50, inhibitory activity against influenza A virus A/PR/8/34 (H1N1).
The format of data set [2] is in vivo. The settings on record: Mouse, PO, 10 mpk of 8B; concentration of 7B detected. The procedure: (§1) Experimental objectives: To evaluate the druggability of the compounds by measuring pharmacokinetic properties in different animal species.
(§2) Experimental materials: Sprague-Dawley strain rats, Beagle dogs, cynomolgus monkeys.
(§3) The animal pharmacokinetic properties of the compound after intravenous injection and oral administration were tested by standard protocols, in which the candidate compound was prepared as a clear solution (intravenous injection) or as a homogeneous suspension (oral administration), and administered as a single dose to the animals. The vehicles for intravenous injection and oral administration are dimethyl sulfoxide and polyethylene glycol (15)-hydroxystearate aqueous solution in certain proportions. Whole blood samples were collected within 24 hours, centrifuged at 3200 g for 10 minutes, and the supernatant was separated to obtain plasma samples. Quantitative analysis of plasma concentrations was performed by LC-MS/MS analysis method, and pharmacokinetic parameters such as peak concentration, peak time, clearance rate, half-life, and area under the drug-time curve were calculated.

The format of data set [3] is in vivo, Beagle dogs. The settings on record: Dog, PO, 1 mpk of 8B; concentration of 7B detected. The procedure:
as §1, §2, §3

Data set [4] is classed as in vivo, cynomolgus monkeys. Also on record: Tmax: unit not given here. The settings on record: Monkey, PO, 1 mpk of 8B; concentration of 7B detected. On the procedure:
as §1, §2, §3

Data set [5] has as its system influenza A virus strain A/PR8/34. Put plainly: Drug efficacy assay in mice, treatment model of influenza A. The data set is classed as in vivo, mice (BALB/c). The settings on record: 30 mpk BID intragastric, day 2 to day 8.

SMILES strings stand for the structures. Where two headings read alike, the source gives them in different places.

The AUC is concentration integrated over time. The term Cmax denotes the maximum level reached in the sampled fluid or tissue.

For the compound `CN1C(=O)c2c(O)c(=O)ccn2N2C1CCOc1cc(F)c(F)cc1[C@H]2c1ccccc1` (stereo partly shown) [Compound 1A], in data set [1] (Influenza A virus, 120 h), the EC50 is 22 nM.

Regarding `O=C1c2c(O)c(=O)ccn2N2C(CCOc3cc(F)c(F)cc3[C@H]2c2ccccc2)N1C1CCC1` (stereo partly shown) [Compound 2A], the EC50 in data set [1] (Influenza A virus, 120 h) worked out at 13 nM.

For the compound `O=C1c2c(O)c(=O)ccn2N2[C@H](c3ccccc3)c3ccccc3OCC[C@H]2N1C1CCC1` [Compound 3A], in data set [1], the EC50 was determined as 37 nM.

For `CC(C)N1C(=O)c2c(O)c(=O)ccn2N2C1CCOc1ccccc1[C@H]2c1ccccc1` (stereo partly shown) [Compound 4A], the EC50 in data set [1] (Influenza A virus, 120 h) stood at 74 nM.

Consider `COC(=O)OCOc1c2n(ccc1=O)N1[C@H](c3ccccc3)c3cc(F)c(F)cc3OCC[C@H]1N(C)C2=O` [Compound 8B], for which the exposure (AUC) in data set [2] turned out to be 0.93 µM·h; in data set [3] it was 0.724 µM·h; in data set [4], 0.785 µM·h. Also, the maximum concentration (Cmax) in data set [2] was found to be 309 nM; in data set [3] it was 171 nM; in data set [4], 163 nM. For the same compound, the figures for the T1/2 in data set [2], in data set [3] and in data set [4] were 1.3 h, 4.4 h and 3.6 h, respectively. The figures for the Tmax in data set [2], in data set [3] and in data set [4] were 1.2 h, 0.75 h and 3, respectively. Moreover, the “Change in body weight (Percentage of starting body weight)” value is −6.6 ± 1.1 Percentage of starting body weight in data set [5] (Day 3); −9.3 ± 0.8 Percentage of starting body weight in data set [5] (Day 4); −8.9 ± 2.2 Percentage of starting body weight in data set [5] (Day 5); −9.4 ± 1.9 Percentage of starting body weight in data set [5] (Day 6); −7.7 ± 1.4 Percentage of starting body weight in data set [5] (Day 7); −0.9 ± 0.8 Percentage of starting body weight in data set [5] (Day 8). Moreover, the “Change in body weight (Percentage of starting body weight)” value is given as −0.5 ± 1.1 Percentage of starting body weight in data set [5] (Day 9); 0.5 ± 0.6 Percentage of starting body weight in data set [5] (Day 10); 2.5 ± 0.6 Percentage of starting body weight in data set [5] (Day 11); 2.9 ± 1.0 Percentage of starting body weight in data set [5] (Day 12); 2.4 ± 1.3 Percentage of starting body weight in data set [5] (Day 13); 2.7 ± 1.4 Percentage of starting body weight in data set [5] (Day 14). For the same compound, the Survival rate in data set [5] (Day 3), in data set [5] (Day 4), in data set [5] (Day 5), in data set [5] (Day 6), in data set [5] (Day 7) and in data set [5] (Day 8) was 100% throughout. Moreover, the Survival rate in data set [5] (Day 9), in data set [5] (Day 10), in data set [5] (Day 11), in data set [5] (Day 12), in data set [5] (Day 13) and in data set [5] (Day 14) was 100% in each case.

As to `CN1C(=O)c2c(O)c(=O)ccn2N2C1CCOc1cc(F)c(F)cc1[C@H]2c1ccc(F)cc1` (stereo partly shown) [Compound 9A], the EC50 in data set [1] (Influenza A virus, 120 h) came to 34 nM.

With `CN1C(=O)c2c(O)c(=O)ccn2N2[C@H](c3ccccc3Br)c3cc(F)c(F)cc3OCC[C@@H]12` [Compound 18A], the EC50 in data set [1] (Influenza A virus, 120 h) is 11 nM.

Regarding `CN1C(=O)c2c(O)c(=O)ccn2N2[C@H](c3ccccc3)c3ccc(F)c(F)c3OCC[C@@H]12` [Compound 20A], the EC50 in data set [1] (Influenza A virus, 120 h) turned out to be 50 nM.
